Patent US10392383B2, “3-(1H-benzo[d]imidazol-2-yl)-1H-pyrazolo[4,3-b]pyridines and therapeutic uses thereof” (Samumed, LLC, priority 2015, dated 2019)

Experiments:
Assay type in all cases: cell-based
[1] = system: SW480 colon cancer cells; experiment: Cell viability assay (CellTiter-Blue) in SW480 cells; conditions: Homo sapiens, 96 h, four days; for EC50: CellTiter-Blue, 10 μM to 0.0045 μM; for inhibition at 10 µM: read-out: percent inhibition at 10 μM (given for EC50 of >10 μM)
Method in brief: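 SW480 cells (~2×10^3 per well) were exposed to compound for four days at 37 °C/5% CO2, using 8-point 1:3 dilutions from 10 μM to 0.0045 μM in duplicate. Viability was read by resazurin reduction (CellTiter-Blue, ~3 h, Ex 560/Em 590 nm). EC50 came from non-linear regression; above 10 μM, percent inhibition at 10 μM is given.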

[2] = system: primary human mesenchymal stem cells (hMSCs); experiment: Induction of chondrogenesis in human mesenchymal stem cells (nodule staining with Rhodamine B / Nile Red); conditions: for Emax: TGF-β3 (10 ng/mL) as positive control, read-out: Max. Activity as % TGF-β3 activity; for EC50: concentration required to induce 50% levels of chondrogenesis vs TGF-β3, read-out: Conc (nM) of 50% TGF-β3 activity
Experimental: Representative compounds were screened using primary human mesenchymal stem cells (hMSCs) to determine their ability to induce chondrogenesis (process by which cartilage is developed).
Human Mesenchymal Stem Cell Culture: Primary human mesenchymal stem cells (hMSCs) were purchased from Lonza (Walkersville, Md.) and expanded in Mesenchymal Stem Cell Growth Media (Lonza). Cells between passage 3 and 6 were used for the experiments.
Compound Screening: Each compound was dissolved in DMSO as a 10 mM stock and used to prepare compound source plates. For the 96 well assay, serial dilution (1:3, 6-point dose-response curves from 2700 nM to 10 nM) and compound transfer was performed using the ECHO 550 (Labcyte, Sunnyvale, Calif.) into 96-well clear bottom assay plates (Greiner Bio-One) with appropriate DMSO backfill for a final DMSO concentration of 0.03%. hMSCs were plated at 20,000 cells/well in 250 μL/well Incomplete Chondrogenic Induction Medium (Lonza; DMEM, dexamethasone, ascorbate, insulin-transferrin-selenium [ITS supplement], gentamycin-amphotericin [GA-1000], sodium pyruvate, proline and L-glutamine). TGF-β3 (10 ng/mL) was used as a positive control for differentiation while negative control wells were treated with 75 nL DMSO for normalization and calculating EC50 values. For the 384 well assay, serial dilution (1:3, 8-point dose-response curves from 5000 nM to 2.2 nM) and compound transfer was performed using the ECHO 550 (Labcyte, Sunnyvale, Calif.) into 384-well clear bottom assay plates (Greiner Bio-One) with appropriate DMSO backfill for a final DMSO concentration of 0.03%. hMSCs were plated at 8,000 cells/well in 80 μL/well Incomplete Chondrogenic Induction Medium (Lonza; DMEM, dexamethasone, ascorbate, insulin-transferrin-selenium [ITS supplement], gentamycin-amphotericin [GA-1000], sodium pyruvate, proline and L-glutamine). TGF-β3 (10 ng/mL) was used as a positive control for differentiation while negative control wells were treated with 25 nL DMSO for normalization and calculating EC50 values. Cells were incubated at 37° C. and 5% CO2 for 6 days. To image chondrogenic nodules, the cells were fixed using 4% formaldehyde (Electron Microscopy Sciences), and stained with 2 μg/mL Rhodamine B (Sigma-Aldrich) and 20 μM Nile Red (Sigma-Aldrich) [Johnson K., et. al, A Stem Cell-Based Approach to Cartilage Repair, Science, (2012), 336(6082), 717-721]. The nodules imaged (25 images per well for 96 well plates and 9 images per well for 384 well plates at 10× magnification) by excitation at 531 nm and emission at 625 nm and quantified using the CellInsight CX5 (Thermo Scientific). Area of nodules in each well was normalized to the average of 3 DMSO treated wells on the same plate using Excel (Microsoft Inc.). The normalized averages (fold change over DMSO) of 2 or 3 replicate wells for each compound concentration were calculated. Due to solubility limitations of some of the compounds, curve fitting was incomplete leading to inaccurate EC50 determinations.
Using TGF-β3 as a positive control, the concentration of representative compounds required to induce 50% levels of chondrogenesis is reported. In addition, the maximum activity of each compound and the respective dose that each compound reached maximum chondrogenesis activity is reported.

[3] = system: IL-6 (THP-1 cells); experiment: IL-6 inhibition in LPS-stimulated THP-1 monocytes (HTRF); conditions: Homo sapiens, IL-6 HTRF; for EC50: 500 ng/mL LPS, Table 6; for inhibition at 10 µM: LPS, Table 6, read-out: percent inhibition at 10 μM (given in parentheses for EC50 >10 μM)
Method in brief: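 THP-1 cells in 1% FBS pre-incubated 2 h with compound (10-point 1:3 series from 10 μM, 0.1% DMSO), then stimulated with 500 ng/mL LPS for 22 h at 37 °C. IL-6 measured by HTRF 665/620 ratio, normalized to DMSO; EC50 by four-parameter fit, or % inhibition at 10 μM when EC50 >10 μM.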

CCC(=O)Nc1cncc(-c2ccc3[nH]nc(-c4nc5c(-c6cccc(F)c6)cccc5[nH]4)c3n2)c1 [Compound 1, N-(5-(3-(4-(3-Fluorophenyl)-1H-benzo[d]imidazol-2-yl)-1H-pyrazolo[4,3-b]pyridin-5-yl)pyridin-3-yl)propionamide]
EC50 [1]: 2.74 µM | Emax [2]: 99% | EC50 [3]: > 10 µM | inhibition at 10 µM [3]: 49.2%

CC(C)CC(=O)Nc1cncc(-c2ccc3[nH]nc(-c4nc5c(-c6cccc(F)c6)cccc5[nH]4)c3n2)c1 [Compound 2, N-(5-(3-(4-(3-Fluorophenyl)-1H-benzo[d]imidazol-2-yl)-1H-pyrazolo[4,3-b]pyridin-5-yl)pyridin-3-yl)-3-methylbutanamide]
inhibition at 10 µM [1]: 14.2% | EC50 [1]: > 10 µM | Emax [2]: 57% | EC50 [2]: 21 nM | EC50 [3]: 6.69 µM

CN(C)c1cncc(-c2ccc3[nH]nc(-c4nc5c(-c6cccc(F)c6)cccc5[nH]4)c3n2)c1 [Compound 7, 5-(3-(4-(3-fluorophenyl)-1H-benzo[d]imidazol-2-yl)-1H-pyrazolo[4,3-b]pyridin-5-yl)-N,N-dimethylpyridin-3-amine]
EC50 [1]: 2.77 µM | Emax [2]: 53% | EC50 [2]: 30 nM | EC50 [3]: 9.5 µM

CN(C)Cc1cncc(-c2ccc3[nH]nc(-c4nc5c(-c6cccc(F)c6)cccc5[nH]4)c3n2)c1 [Compound 13, 1-(5-(3-(4-(3-Fluorophenyl)-1H-benzo[d]imidazol-2-yl)-1H-pyrazolo[4,3-b]pyridin-5-yl)pyridin-3-yl)-N,N-dimethylmethanamine]
EC50 [1]: 0.466 µM | Emax [2]: 85% | EC50 [2]: 30 nM | EC50 [3]: 1.37 µM

Fc1cccc(-c2cccc3[nH]c(-c4n[nH]c5ccc(-c6ccncc6)nc45)nc23)c1 [Compound 18, 3-(4-(3-Fluorophenyl)-1H-benzo[d]imidazol-2-yl)-5-(pyridin-4-yl)-1H-pyrazolo[4,3-b]pyridine]
inhibition at 10 µM [1]: 0% | EC50 [1]: > 10 µM | Emax [2]: 39% | EC50 [3]: 3.62 µM

Cc1cn(-c2cccc3[nH]c(-c4n[nH]c5ccc(-c6cncc(NC(=O)CC(C)C)c6)nc45)nc23)cn1 [Compound 198, 3-Methyl-N-(5-(3-(4-(4-methyl-1H-imidazol-1-yl)-1H-benzo[d]imidazol-2-yl)-1H-pyrazolo[4,3-b]pyridin-5-yl)pyridin-3-yl)butanamide]
EC50 [1]: 1.22 µM | Emax [2]: 44% | EC50 [3]: > 10 µM | inhibition at 10 µM [3]: 30.8%

Cc1cn(-c2cccc3[nH]c(-c4n[nH]c5ccc(-c6cncc(NC(=O)C(C)(C)C)c6)nc45)nc23)cn1 [Compound 204, N-(5-(3-(4-(4-Methyl-1H-imidazol-1-yl)-1H-benzo[d]imidazol-2-yl)-1H-pyrazolo[4,3-b]pyridin-5-yl)pyridin-3-yl)pivalamide]
EC50 [1]: 1.51 µM | Emax [2]: 78% | EC50 [2]: 10 nM | EC50 [3]: 6.38 µM

Cc1cn(-c2cccc3[nH]c(-c4n[nH]c5ccc(-c6cncc(CN7CCCC7)c6)nc45)nc23)cn1 [Compound 210, 3-(4-(4-Methyl-1H-imidazol-1-yl)-1H-benzo[d]imidazol-2-yl)-5-(5-(pyrrolidin-1-ylmethyl)pyridin-3-yl)-1H-pyrazolo[4,3-b]pyridine]
EC50 [1]: 8.47 µM | Emax [2]: 193% | EC50 [2]: 7 nM | EC50 [3]: > 10 µM | inhibition at 10 µM [3]: 33.2%

Cc1cn(-c2cccc3[nH]c(-c4n[nH]c5ccc(-c6cncc(NC(=O)C7CCC7)c6)nc45)nc23)cn1 [Compound 217, N-(5-(3-(4-(4-Methyl-1H-imidazol-1-yl)-1H-benzo[d]imidazol-2-yl)-1H-pyrazolo[4,3-b]pyridin-5-yl)pyridin-3-yl)cyclobutanecarboxamide]
EC50 [1]: 3.5 µM | Emax [2]: 32% | EC50 [3]: > 10 µM | inhibition at 10 µM [3]: 51.9%

c1cncc(-c2ccc3[nH]nc(-c4nc5ccccc5[nH]4)c3n2)c1 [Compound 256, 3-(1H-Benzo[d]imidazol-2-yl)-5-(pyridin-3-yl)-1H-pyrazolo[4,3-b]pyridine]
EC50 [1]: 8.84 µM | Emax [2]: 85% | EC50 [2]: 10 nM | EC50 [3]: > 10 µM | inhibition at 10 µM [3]: 0%

Cc1ccncc1-c1ccc2[nH]nc(-c3nc4c(-c5ccsc5)cccc4[nH]3)c2n1 [Compound 285, 5-(4-Methylpyridin-3-yl)-3-(4-(thiophen-3-yl)-1H-benzo[d]imidazol-2-yl)-1H-pyrazolo[4,3-b]pyridine]
EC50 [1]: 5.4 µM | Emax [2]: 32% | EC50 [3]: > 10 µM | inhibition at 10 µM [3]: 36.3%

FC1(F)CCN(Cc2cncc(-c3ccc4[nH]nc(-c5nc6c(-c7ccsc7)cccc6[nH]5)c4n3)c2)C1 [Compound 306, 5-(5-((3,3-Difluoropyrrolidin-1-yl)methyl)pyridin-3-yl)-3-(4-(thiophen-3-yl)-1H-benzo[d]imidazol-2-yl)-1H-pyrazolo[4,3-b]pyridine]
EC50 [1]: 4.79 µM | Emax [2]: 39% | EC50 [3]: 4.48 µM

CCNCc1cncc(-c2ccc3[nH]nc(-c4nc5c(-c6ccoc6)cccc5[nH]4)c3n2)c1 [Compound 314, N-((5-(3-(4-(Furan-3-yl)-1H-benzo[d]imidazol-2-yl)-1H-pyrazolo[4,3-b]pyridin-5-yl)pyridin-3-yl)methyl)ethanamine]
EC50 [1]: 0.584 µM | Emax [2]: 32% | EC50 [3]: > 10 µM | inhibition at 10 µM [3]: 15.6%

CCC(=O)Nc1cncc(-c2ccc3[nH]nc(-c4nc5c(-c6cccs6)cccc5[nH]4)c3n2)c1 [Compound 337, N-(5-(3-(4-(Thiophen-2-yl)-1H-benzo[d]imidazol-2-yl)-1H-pyrazolo[4,3-b]pyridin-5-yl)pyridin-3-yl)propionamide]
EC50 [1]: 3.26 µM | Emax [2]: 57% | EC50 [3]: 2.1 µM

CN(C)c1cncc(-c2ccc3[nH]nc(-c4nc5c(-c6cccs6)cccc5[nH]4)c3n2)c1 [Compound 343, N,N-Dimethyl-5-(3-(4-(thiophen-2-yl)-1H-benzo[d]imidazol-2-yl)-1H-pyrazolo[4,3-b]pyridin-5-yl)pyridin-3-amine]
EC50 [1]: 2.36 µM | Emax [2]: 83% | EC50 [2]: 100 nM | EC50 [3]: 3.67 µM

Oc1cncc(-c2ccc3[nH]nc(-c4nc5c(N6CCCCC6)cccc5[nH]4)c3n2)c1 [Compound 613, 5-(3-(4-(Piperidin-1-yl)-1H-benzo[d]imidazol-2-yl)-1H-pyrazolo[4,3-b]pyridin-5-yl)pyridin-3-ol]
EC50 [1]: 2.71 µM | EC50 [3]: 6.77 µM

CN1CCN(c2cccc3[nH]c(-c4n[nH]c5ccc(-c6cncc(OC7CCCCC7)c6)nc45)nc23)CC1 [Compound 639, 5-(5-(Cyclohexyloxy)pyridin-3-yl)-3-(4-(4-methylpiperazin-1-yl)-1H-benzo [d]imidazol-2-yl)-1H-pyrazolo[4,3-b]pyridine]
EC50 [1]: 0.933 µM | EC50 [3]: 4.9 µM

CN1CCN(c2cccc3[nH]c(-c4n[nH]c5ccc(-c6cncc(OCc7ccccc7)c6)nc45)nc23)CC1 [Compound 646, 5-(5-(Benzyloxy)pyridin-3-yl)-3-(4-(4-methylpiperazin-1-yl)-1H-benzo[d]imidazol-2-yl)-1H-pyrazolo[4,3-b]pyridine]
EC50 [1]: 1.04 µM | EC50 [3]: 3.34 µM
